Laboratory results reported in PubChem BioAssay (NCI).
Where “and” joins values, the source holds several entries; their conditions need not be identical. Equal values may be shown once.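 Following 48 hours of exposure in 96-well plates, responses at five concentrations were used to interpolate endpoints linearly. GI50 marks 50% less growth. Definition used: TGI = concentration required for complete inhibition of growth.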

Experiments:
Test in all cases: inhibition of tumour cell growth, NCI panel, 48 h
[1] = system: NCI-H226 lung
[2] = system: MCF7 breast
[3] = system: M19-MEL melanoma
[4] = system: DLD-1 colon
[5] = system: HCT-116 colon
[6] = system: CAKI-1 renal
[7] = system: SK-MEL-28 melanoma
[8] = system: MALME-3M melanoma
[9] = system: HOP-92 NSCLC
[10] = system: SK-MEL-5 melanoma

`c1ccc([P+](CCC[P+](c2ccccc2)(c2ccccc2)c2ccccc2)(c2ccccc2)c2ccccc2)cc1` was tested, and the GI50 [1] was 32.7 µM, the TGI [1] was 93.8 µM and > 100 µM and the GI50 [2] was 6.79 µM. It also gave a TGI [2] greater than 100 µM, a TGI [3] greater than 100 µM and a TGI [4] greater than 100 µM. For the same compound, the GI50 [5] was 7.27 µM, the TGI [5] was greater than 100 µM and the TGI [6] was greater than 100 µM. For the same compound, the GI50 [7] was 11.2 µM, the TGI [7] was greater than 100 µM and the TGI [8] was greater than 100 µM. The TGI [9] was 82.2 µM, the GI50 [10] was 6.8 µM and the TGI [10] was 74.1 µM and 38.7 µM.
`N#CNc1nc(C(=O)Nc2ccc(Cl)cc2)cc(-c2ccccc2)n1` showed a TGI [1] greater than 100 µM, a TGI [3] greater than 100 µM and a TGI [4] greater than 100 µM. It also gave a TGI [5] greater than 100 µM, a TGI [6] greater than 100 µM and a TGI [7] greater than 100 µM. It also gave a TGI [8] greater than 100 µM, a TGI [9] greater than 100 µM and a TGI [10] greater than 100 µM.
For `CN(C)NC(=S)NC12CC3CC(CC(C3)C1)C2`, the TGI [1] was greater than 100 µM, the TGI [3] was greater than 100 µM and the TGI [4] was greater than 100 µM. It also gave a TGI [5] greater than 100 µM, a TGI [6] greater than 100 µM and a TGI [7] greater than 100 µM. The TGI [8] was greater than 100 µM, the TGI [9] was greater than 100 µM and the TGI [10] was greater than 100 µM.
With `O=C1c2c(O)cccc2C(C(=O)CCCC(=O)C2c3cccc(O)c3C(=O)c3c(O)cccc32)c2cccc(O)c21` the TGI [1] was 1.47 µM, the TGI [2] was 25 µM and the TGI [3] was 4.17 µM. For the same compound, the TGI [4] was 7 µM, the TGI [5] was 3.79 µM and the TGI [6] was 4.45 µM. For the same compound, the TGI [7] was 4.53 µM, the TGI [8] was 2.85 µM and the TGI [9] was 1 µM. It also gave a TGI [10] of 0.671 µM.
With `C[n+]1ccc2[nH]c3ccccc3c2c1` the TGI [1] was greater than 100 µM, the TGI [3] was greater than 100 µM and the TGI [4] was greater than 100 µM. The TGI [5] was greater than 100 µM, the TGI [6] was greater than 100 µM and the TGI [7] was greater than 100 µM. The TGI [8] was 99.4 µM, the TGI [9] was greater than 100 µM and the TGI [10] was greater than 100 µM.
